These results are taken from ChEMBL document CHEMBL1147639, “Quinolines as extremely potent and selective PDE5 inhibitors as potential agents for treatment of erectile dysfunction” (Bioorg Med Chem Lett, 2004).

As usually defined, the IC50 is the concentration that gives 50% inhibition.

Test [1] can be described thus: Relative inhibition of rat kidney PDE4 and human platelet PDE 5.
A short description of test [2]: Relative inhibition of bovine retina PDE6 and human platelet PDE 5.
A short description of test [3]: Relative inhibition of rat kidney PDE2 and human platelet PDE 5.
The target in test [4] is cGMP-specific 3',5'-cyclic phosphodiesterase (Homo sapiens, UniProt O76074). Put plainly: Inhibition of phosphodiesterase 5 from human platelets.
A short description of test [5]: Relative inhibition of bovine heart PDE1 and human platelet PDE5.
Test [6] has as its target cGMP-dependent 3',5'-cyclic phosphodiesterase (Rattus norvegicus) (UniProt Q01062). Nature of the test: Inhibition of phosphodiesterase 2.
Test [7] deals with Phosphodiesterase 1 (Bos taurus, UniProt Q01061+P14100). Nature of the test: Inhibition of phosphodiesterase 1 of bovine heart. It is filed as protein assay.
In test [8] the target is Phosphodiesterase 6. Put plainly: Inhibition of phosphodiesterase 6. It is filed as protein assay.
Test [9] addresses Phosphodiesterase 3 (Homo sapiens, UniProt Q14432+Q13370). Put plainly: Inhibitory activity of compound against phosphodiesterase 3 was tested. It is filed as protein assay.
Test [10] in a line: Inhibition of phosphodiesterase 4.

Sequence of cGMP-dependent 3',5'-cyclic phosphodiesterase (Rattus norvegicus) (Q01062 whole entry, looked up): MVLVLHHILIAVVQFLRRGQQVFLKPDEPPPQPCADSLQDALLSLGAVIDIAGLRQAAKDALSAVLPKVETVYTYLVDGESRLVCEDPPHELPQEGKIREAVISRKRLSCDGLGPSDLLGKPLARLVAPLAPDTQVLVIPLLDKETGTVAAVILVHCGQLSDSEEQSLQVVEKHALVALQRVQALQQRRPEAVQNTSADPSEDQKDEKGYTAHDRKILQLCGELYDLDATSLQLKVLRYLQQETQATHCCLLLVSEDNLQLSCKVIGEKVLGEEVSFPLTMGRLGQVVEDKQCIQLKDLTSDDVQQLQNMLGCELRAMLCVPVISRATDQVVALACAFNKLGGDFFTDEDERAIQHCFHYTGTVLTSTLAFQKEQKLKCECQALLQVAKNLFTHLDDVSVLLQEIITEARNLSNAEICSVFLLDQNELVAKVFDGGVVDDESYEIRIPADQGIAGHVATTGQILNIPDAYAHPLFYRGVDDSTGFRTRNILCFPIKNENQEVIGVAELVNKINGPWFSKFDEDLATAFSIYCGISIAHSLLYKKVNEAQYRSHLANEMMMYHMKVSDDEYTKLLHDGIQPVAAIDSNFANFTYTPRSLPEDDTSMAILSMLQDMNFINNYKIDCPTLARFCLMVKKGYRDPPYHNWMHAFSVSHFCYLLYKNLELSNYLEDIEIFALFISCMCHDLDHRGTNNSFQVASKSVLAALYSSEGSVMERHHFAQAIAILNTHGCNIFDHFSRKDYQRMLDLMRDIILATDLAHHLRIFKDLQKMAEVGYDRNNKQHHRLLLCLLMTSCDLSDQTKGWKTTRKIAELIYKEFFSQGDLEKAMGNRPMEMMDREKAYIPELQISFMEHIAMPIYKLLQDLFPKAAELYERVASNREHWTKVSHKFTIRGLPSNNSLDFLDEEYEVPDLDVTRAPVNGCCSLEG

In the case of `CCOC(=O)c1cnc2ccc(C#N)cc2c1NCc1ccc(OC)c(Cl)c1`, the Selectivity ratio is 3800 in [1], 15 in [2] and above 100000 in [3].
As for `CCOC(=O)c1cnc2c(CC)cc(C#N)cc2c1NCc1ccc(OC)c(Cl)c1`, the Selectivity ratio was above 100000 in test [1], 110 in test [2], above 100000 in [5] and above 100000 in [3]. For the same compound, in [4], inhibition was half-maximal at 0.6 nM (IC50).
With `COc1ccc(CNc2ccnc3ccc(C#N)cc23)cc1Cl`, the Selectivity ratio in [1] is 3500; in test [2], 29; in test [5] it was 6400; in [3] it was above 100000. In test [4], this compound yielded a concentration for half-maximal inhibition (IC50) of 1.4 nM.
In the case of `COc1ccc(CNc2c(C(=O)NCc3ccccn3)cnc3ccc(C#N)cc23)cc1Cl`, the Selectivity ratio in test [1] was 3100; in [2], 64; in [5], above 100000; in test [3] it was above 100000. Also, in test [4], the IC50 was 1.3 nM.
As for `CCOC(=O)c1cnc2cc(C(F)(F)F)ccc2c1NCc1ccc(OC)c(Cl)c1`, the IC50 was above 50000 nM in [6]; above 50000 nM in [7]; 20000 nM in test [8]; above 50000 nM in [9]; above 50000 nM in test [10]; 160 nM in [4]. Besides, the Selectivity ratio in [1] is above 310; in test [2], 125; in test [5], above 310; in test [3], above 310.
On to `CCOC(=O)c1cnc2ccc(C(F)(F)F)cc2c1NCc1ccc(OC)c(Cl)c1`, for which the Selectivity ratio is 247 in test [1], 75 in test [2], above 680 in [5] and above 680 in test [3]. This compound also showed an IC50 in [4] of 73 nM.
Regarding `CCc1cc(C#N)cc2c(NCc3ccc(OC)c(Cl)c3)c(CO)cnc12`, the results for the Selectivity ratio in [2], in test [5] and in test [3] were 7800, above 1e+06 and above 100000, respectively. The IC50 in [4] was 0.05 nM.
As for `CCc1cc(C#N)cc2c(NCc3ccc(OC)c(Cl)c3)c(C(=O)NCc3ccccn3)cnc12`, the Selectivity ratio in test [1] was found to be 4500; in test [2] it was 82. Also, 0.55 nM corresponded to half-maximal inhibition in test [4] (IC50).
On to `CCc1cc(C#N)cc2c(NCc3ccc(OC)c(Cl)c3)ccnc12`, for which the Selectivity ratio in test [1] is 2200; in test [2] it was 40.
For the compound `COc1ccc(CNc2c(CO)cnc3ccc(C#N)cc23)cc1Cl`, the Selectivity ratio in [1] was above 100000; in test [2], 23; in test [5] it was above 100000; in [3], 8600. In [4], the IC50 amounted to 0.48 nM.
